Test results as given in PMC6072853 (Frontiers in Pharmacology, 2018).

Tests used:
HeLa = test: MTT antiproliferative assay, HeLa; type: cell-based, human; conditions: Homo sapiens, 72 h; for inhibition at 10 µM / inhibition at 30 µM: read-out: Growth inhibition (%) ± SEM; for IC50: read-out: calculated IC50 value
Text: (§1) Gynecological cancer cell lines, including ovarian (A2780), cervical (HeLa), and breast cancer cell lines (MCF7, T47D, MDA-MB-231, and MDA-MB-361) were purchased from the European Collection of Authenticated Cell Cultures (ECACC, Salisbury, United Kingdom). Additional cervical cell lines (SiHa and C33A) and a non-cancerous immortalized, mammary gland epithelial cell line (hTERT-HME1) were purchased from LGC Standards GmbH (Wesel, Germany). Non-cancerous fibroblast cells (MRC-5) were also obtained from the ECACC. All cells were cultured in minimal essential medium supplemented with 10% fetal bovine serum, 1% non-essential amino acids, and 1% antibiotic-antimycotic mixture, in humidified air containing 5% CO2 at 37°C. Immortalized hTERT-HME1 cells were maintained in serum-free mammary epithelial cell growth medium (MEGM) supplemented with insulin, human epidermal growth factor (hEGF), hydrocortisone, bovine pituitary extract, and an antibiotic-antimycotic mixture. All the medium and supplements were purchased from Lonza Group Ltd. (Basel, Switzerland).
(§2) The antiproliferative properties of the compounds were assessed by an MTT assay ([Mosmann, 1983]). Cells were seeded onto 96-well microplates at a density of 10,000 cells/well (MDA-MB-361 and C33A) or 5,000 cells/well (all other cell lines). After an overnight incubation, fresh medium containing the test compounds (at a concentration of 10 or 30 μM) was added. After incubation for 72 h at 37°C in humidified air, [3-(4,5-dimethylthiazol-2-yl)-2,5-diphenyltetrazolium bromide] (MTT) solution (5 mg/mL) was added. Purple formazan crystals were formed by the living cells during a 4 h contact period, which were assayed by spectrophotometry after having been dissolved in 100 μL DMSO. Untreated cells served as control, and cisplatin (CIS) (Ebewe Pharma GmbH, Unterach, Austria) was used as a reference compound. […] Two independent measurements were performed with five parallel wells. To present preliminary data concerning tumor selectivity of the potent compounds, the procedure was repeated on MRC-5 fibroblast and hTERT-HME1 immortalized mammary gland epithelial cells under the same experimental conditions.

A2780 = test: MTT antiproliferative assay, A2780; type: cell-based, human; conditions: Homo sapiens, 72 h, read-out: Growth inhibition (%) ± SEM; for inhibition at 10 µM: A2780, 10 μM; for inhibition at 30 µM: A2780, 30 μM
Text: as §1, §2

T47D = test: MTT antiproliferative assay, T47D; type: cell-based, human; conditions: Homo sapiens, 72 h, read-out: Growth inhibition (%) ± SEM
Text: as §1, §2

MRC-5 = test: MTT assay, non-cancerous fibroblasts MRC-5; type: cell-based, human; conditions: Homo sapiens, MRC5, 72 h, read-out: Growth inhibition (%) ± SEM; for inhibition at 10 µM: MRC-5, 10 μM; for inhibition at 30 µM: MRC-5, 30 μM
Text: as §1, §2

hTERT-HME1 = test: MTT assay, immortalized mammary gland epithelial cells hTERT-HME1; type: cell-based, human; conditions: Homo sapiens; for inhibition at 10 µM: hTERT-HME1, 10 μM; for inhibition at 10 µM / inhibition at 30 µM: 72 h, read-out: Growth inhibition (%) ± SEM; for inhibition at 30 µM: hTERT-HME1, 30 μM
Text: as §1, §2

HeLa cells [1] = test: Lactate dehydrogenase (LDH) cytotoxicity assay; type: cell-based, human; conditions: 24 h
Method: The direct cytotoxic effects of the test agents were determined by a lactate dehydrogenase (LDH) assay. Cells were seeded onto 96-well microplates at a density of 5,000 cells/well and were incubated overnight, after which the medium containing the test compounds at proper concentrations was added. After incubation for 24 h, the activity of LDH released by the treated cells was determined by a commercially available colorimetric kit according to the manufacturer’s instructions (Hoffmann-La Roche Ltd., Basel, Switzerland). Untreated cells served as control, while detergent Triton X-100 and CIS were used as reference agents.

HeLa cells [2] = test: Fluorescent double staining (Hoechst 33258 / propidium iodide) morphology; type: cell-based, human; conditions: 24 h, 1.0, 3.0 or 5.0 μM
Method: Fluorescent double staining was performed in order to detect apoptosis induction and morphological changes using fluorescent microscopy. HeLa cells were seeded into a 96-well plate at the density of 3,000Ȓ5,000 cells per well. After an overnight incubation, the cells were treated with various concentrations of the test compounds for 24 h. The treated cells were then incubated with a fluorescent staining solution (containing Hoechst 33258 and propidium iodide, 500 and 300 μg/mL, respectively) for an hour. After staining, the cells were analyzed using a fluorescent microscope (Nikon ECLIPSE 146 TS100, Nikon Instruments Europe, Amstelveen, Netherlands) equipped with appropriate optical filters. For all different conditions, at least six fields were recorded with an attached QCapture CCD camera. This way cells with an intact, apoptotic or necrotic morphology can be distinguished based on their different nuclear morphological appearance and distinct membrane integrity.

caspase-3 = test: Caspase-3 activity colorimetric assay; type: cell-based, human; conditions: HeLa
Method: (§3) In order to detect, whether the test compounds induce programmed cell death, the activity of caspase-3 was determined by a colorimetric assay. To elucidate the exact pathway of apoptosis, activities of caspase-8 and caspase-9 were additionally determined by colorimetric kits. In all cases approximately 12 million cells were treated with appropriate concentrations of the compounds for 24 or 72 h. After the treatment, the cells were scraped and the enzyme activities were determined by means of colorimetric assays mentioned above. All kits were purchased from Abnova Corp. (Taipei, Taiwan) and used in accordance with the instructions of the manufacturer.

caspase-8 = test: Caspase-8 activity colorimetric assay; type: cell-based, human; conditions: HeLa
Method: as §3

caspase-9 = test: Caspase-9 activity colorimetric assay; type: cell-based, human; conditions: HeLa
Method: as §3

tubulin = test: Tubulin polymerization assay (cell-free); type: biochemical; conditions: cell-free system, compared to untreated control
Method: In order to determine the direct action of the test compounds on the microtubular system, an in vitro tubulin polymerization assay was performed using a commercially available kit (Cytoskeleton Inc., Denver, CO, United States) in accordance with the provider’s instructions. The assay reactions were performed on a pre-warmed (37°C), UV-transparent 96-well microplate. Ten microliters of the test solutions were placed on the wells supplemented with 2 mM MgCl2, 0.5 mM ethylene glycol tetraacetic acid (EGTA), 1 mM guanosine triphosphate (GTP) and 10.2% glycerol. Ten microliters of general tubulin buffer was used as untreated control, and paclitaxel (PAC) served as the reference compound. The polymerization reaction was initiated by adding 100 μL of 3.0 mg/mL tubulin in 80 mM PIPES, pH 6.9, to each sample. Absorbance of the samples was measured per minute, at 340 nm, using a 60-min kinetic measurement protocol. Each sample was prepared in two parallels. To characterize the process, polymerization curves were fitted to the measured data. The highest difference between the absorbances measured at two consecutive time points was regarded as Vmax (Δabsorbance/min) for the tested compound. A clinically applied reference agent, PAC was used at a relatively high concentration (10 μM) as recommended by the manufacturer. […]. […]

| SMILES | inhibition at 10 µM (HeLa) [%] | inhibition at 30 µM (HeLa) [%] | IC50 (HeLa) [nM] | inhibition at 10 µM (A2780) [%] | inhibition at 30 µM (A2780) [%] | inhibition at 10 µM (T47D) [%] | inhibition at 30 µM (T47D) [%] | inhibition at 10 µM (MRC-5) [%] | inhibition at 30 µM (MRC-5) [%] | inhibition at 10 µM (hTERT-HME1) [%] | inhibition at 30 µM (hTERT-HME1) [%] | apoptotic and necrotic cell populations (morphology) (HeLa cells [2]) | effect on tubulin polymerization (tubulin) | further results |
| --- | --- | --- | --- | --- | --- | --- | --- | --- | --- | --- | --- | --- | --- | --- |
| C[C@]12CC[C@H]3[C@@H](CCC4=CC(=O)CC[C@@H]43)[C@@H]1CC[C@@H]2O [Compound 1, 19-nortestosterone, reference compound] | 99.5 ± 0.2 | 99.5 ± 0.3 | 650 | < 20 | < 20 | < 20 | < 20 | 5.4 ± 1.2 | 11.3 ± 0.5 | 16.9 ± 1.2 | 37.1 | substantial and concentration-dependent increase in both the apoptotic and necrotic cell populations | significant acceleration of tubulin polymerization | LDH release (HeLa cells [1]; 1.5 μM): substantial LDH release; caspase-3 activity (caspase-3; 72 h): increased significantly; caspase-8 activity (caspase-8; 72 h): less pronounced; caspase-9 activity (caspase-9; 72 h): activated the initiator caspases |
| C[C@]12CC[C@H]3[C@@H](CCC4=CC(=O)CC[C@@H]43)[C@@H]1CC[C@H]2Cl [Compound 3] | 95.9 ± 0.3 | 95.1 ± 0.5 | 1210 | < 20 | 32.7 ± 1 | < 20 | < 20 | 4.3 ± 3.7 | 8 ± 2.3 | 76.2 ± 0.5 | 99.9 ± 0.1 | substantial and concentration-dependent increase in both the apoptotic and necrotic cell populations | significant acceleration of tubulin polymerization | IC50 (hTERT-HME1; hTERT-HME1, 72 h, read-out: calculated IC50 value): 4630 nM; LDH release (HeLa cells [1]; 3.0 or 5.0 μM): significant; caspase-3 activity (caspase-3; 24 h, 5.0 μM): enhanced caspase-3 activity; caspase-8 activity (caspase-8; 24 h): no change; caspase-9 activity (caspase-9; 24 h): significantly elevated |
